Reference: US11053218B2, “3-(1-oxoisoindolin-2-yl)piperidine-2,6-dione derivatives and uses thereof” (Novartis AG, priority 2017, dated 2021)
Like-named read-outs stand apart in the source and are kept apart here.

Key:
[1] = molecular target: IKZF2 (Homo sapiens, UniProt Q96SW2+Q9UKS7); assay: Prolabel quantification of IKZF2 protein levels in 293GT cells; type: cell-based
Description: (§1) The Prolabel system from DiscoverX was used to develop high-throughput and quantitative assays to measure changes in IKZF1, IKZF2 and GSPT1 protein levels in response to compounds. The prolabel tag was derived from the alpha fragment of beta galactosidase and has the following protein sequence: mssnslavvlqrrdwenpgvtqlnrlaahppfaswrnseeartdrpsqqlrslnge. The complementary fragment of beta-galactosidase (from DiscoverX), is added to the prolabel tag to form an active beta galactosidase enzyme whose activity can be precisely measured. In this way, the levels of a fusion protein with the prolabel tag can be quantified in cell lysates.
(§2) Lentiviral vectors, based on the Invitrogen pLenti6.2/V5 DEST backbone, were constructed that placed the prolabel tag upstream of IKZF1, IKZF2 or GSPT1 and expressed the fusion protein from a CMV promoter.
(§3) To ensure moderate and consistent expression of the prolabel fusion proteins across all cells in the population, stable cell lines were constructed from cells expressing a single copy of the construct. Lentivirus packaged with the constructs was made using the Virapower kit from Invitrogen.
(§4) The levels of prolabel tagged fusion proteins in compound treated cell lines were measured as follows:
(§5) Day 1, Cells were diluted to 1.0×10^6 cells/ml in normal growth medium. 17.5 μL of cells were plated in each well of a solid white 384 well plate. Plates were incubated overnight in a 37° C. tissue culture incubator.
(§6) Day 2, Serial dilutions of compounds were made in 384 well plates from 10 mM stocks. 15 μL of DMSO was added to each well of a 384 well plate. In the first column 15 μL of stock compound was added. The solution was mixed and 15 μL was transferred to the next column. This was repeated until 20 two-fold dilutions were prepared. 2.5 μL of diluted compounds were transferred into 60 μL of cell culture medium in another 384 well plate, and mixed well. 2.5 μL of this mixture was added to the plated cells. The final DMSO concentration was 0.5% and the highest concentration of compound was 50 μM. Plates were incubated overnight (e.g., about 14 h, 18 h, or 24 h) in a 37° C. tissue culture incubator.
(§7) Day 3, Plates were removed from the incubator and allowed to equilibrate at rt for 30 minutes. Prolabel substrate (DiscoverX PathHunter Prolabel Detection Kit, User manual: 93-0180) was added as described by the manufacturers protocols. Plates were incubated at rt for three hours and luminescence was read using an Envision reader (Perkin Elmer) Data was analyzed and visualized using the Spotfire software package.

[2] = molecular target: IKZF1 (Homo sapiens, UniProt Q13422+Q96SW2); assay: Prolabel quantification of IKZF1 protein levels in 293GT cells; type: cell-based; conditions: Prolabel assay, read-out: IKZF1 EC50
Description: as §1, §2, §3, §4, §5, §6, §7

[3] = 24 h, 10 μM, 24 h, 293GT cells; read-out: IKZF2 % protein reduction at 10 μM, 24 h
[4] = Prolabel assay, 293GT cells; read-out: IKZF2 EC50
[5] = 10 μM, 24 h, 293GT cells; read-out: IKZF2 % protein reduction at 10 μM, 24 h

Chain of IKZF1 (Q13422 whole entry): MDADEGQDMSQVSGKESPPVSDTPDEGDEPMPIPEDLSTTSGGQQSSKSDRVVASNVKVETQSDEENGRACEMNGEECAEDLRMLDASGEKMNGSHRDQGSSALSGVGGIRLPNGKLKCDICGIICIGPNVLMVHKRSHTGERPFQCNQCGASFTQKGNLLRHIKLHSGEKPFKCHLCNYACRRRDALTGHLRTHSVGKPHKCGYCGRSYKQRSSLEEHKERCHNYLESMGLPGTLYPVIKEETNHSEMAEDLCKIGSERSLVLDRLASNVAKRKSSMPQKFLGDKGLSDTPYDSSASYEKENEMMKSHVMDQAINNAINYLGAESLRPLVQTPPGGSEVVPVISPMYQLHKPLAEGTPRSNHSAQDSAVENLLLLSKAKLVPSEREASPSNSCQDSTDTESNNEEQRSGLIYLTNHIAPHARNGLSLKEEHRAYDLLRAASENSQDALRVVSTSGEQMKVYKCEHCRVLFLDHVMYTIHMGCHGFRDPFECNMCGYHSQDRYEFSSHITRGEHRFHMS
Chain of IKZF1 (Q96SW2 whole entry): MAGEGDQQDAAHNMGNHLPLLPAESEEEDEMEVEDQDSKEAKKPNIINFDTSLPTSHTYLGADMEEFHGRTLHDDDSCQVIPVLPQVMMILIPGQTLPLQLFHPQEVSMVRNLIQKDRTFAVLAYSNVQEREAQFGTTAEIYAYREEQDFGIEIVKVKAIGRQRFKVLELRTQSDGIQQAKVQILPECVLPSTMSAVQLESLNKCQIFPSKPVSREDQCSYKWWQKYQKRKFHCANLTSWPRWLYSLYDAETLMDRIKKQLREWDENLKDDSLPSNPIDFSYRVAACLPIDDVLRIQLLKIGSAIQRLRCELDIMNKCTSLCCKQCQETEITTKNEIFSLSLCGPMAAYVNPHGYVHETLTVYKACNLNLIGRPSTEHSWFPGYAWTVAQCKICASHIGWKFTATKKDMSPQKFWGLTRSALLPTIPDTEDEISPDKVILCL
Chain of IKZF1 (Q16531 whole entry partner): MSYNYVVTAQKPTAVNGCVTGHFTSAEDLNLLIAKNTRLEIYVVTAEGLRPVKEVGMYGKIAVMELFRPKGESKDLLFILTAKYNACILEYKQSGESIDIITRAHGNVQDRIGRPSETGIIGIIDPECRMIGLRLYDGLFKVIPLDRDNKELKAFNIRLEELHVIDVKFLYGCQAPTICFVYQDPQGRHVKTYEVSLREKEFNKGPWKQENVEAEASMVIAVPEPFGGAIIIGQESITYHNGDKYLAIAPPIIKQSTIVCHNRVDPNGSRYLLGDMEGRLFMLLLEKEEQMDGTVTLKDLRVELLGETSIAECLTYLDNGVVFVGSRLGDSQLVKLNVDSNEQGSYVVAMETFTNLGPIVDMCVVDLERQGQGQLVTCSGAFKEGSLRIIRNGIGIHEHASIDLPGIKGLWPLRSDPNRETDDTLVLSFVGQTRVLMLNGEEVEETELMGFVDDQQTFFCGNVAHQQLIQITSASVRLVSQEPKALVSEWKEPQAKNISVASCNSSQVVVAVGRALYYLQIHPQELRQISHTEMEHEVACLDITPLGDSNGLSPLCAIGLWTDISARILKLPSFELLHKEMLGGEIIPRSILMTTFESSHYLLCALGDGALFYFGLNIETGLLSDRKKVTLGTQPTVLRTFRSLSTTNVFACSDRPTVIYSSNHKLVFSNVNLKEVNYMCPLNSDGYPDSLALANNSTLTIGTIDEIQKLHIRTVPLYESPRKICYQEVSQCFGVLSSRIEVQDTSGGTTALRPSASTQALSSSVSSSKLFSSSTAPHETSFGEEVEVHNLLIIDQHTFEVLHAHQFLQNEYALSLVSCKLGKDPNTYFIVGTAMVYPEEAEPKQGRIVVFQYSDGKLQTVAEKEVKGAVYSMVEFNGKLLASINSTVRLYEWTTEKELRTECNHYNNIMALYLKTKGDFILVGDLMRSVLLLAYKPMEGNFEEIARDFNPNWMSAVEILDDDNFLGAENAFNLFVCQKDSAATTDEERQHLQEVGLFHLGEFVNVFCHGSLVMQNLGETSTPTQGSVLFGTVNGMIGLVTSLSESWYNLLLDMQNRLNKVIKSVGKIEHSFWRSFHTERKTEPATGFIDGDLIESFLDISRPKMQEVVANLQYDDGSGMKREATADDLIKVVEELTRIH
Chain of IKZF2 (Q9UKS7 whole entry, the tested form may be a part): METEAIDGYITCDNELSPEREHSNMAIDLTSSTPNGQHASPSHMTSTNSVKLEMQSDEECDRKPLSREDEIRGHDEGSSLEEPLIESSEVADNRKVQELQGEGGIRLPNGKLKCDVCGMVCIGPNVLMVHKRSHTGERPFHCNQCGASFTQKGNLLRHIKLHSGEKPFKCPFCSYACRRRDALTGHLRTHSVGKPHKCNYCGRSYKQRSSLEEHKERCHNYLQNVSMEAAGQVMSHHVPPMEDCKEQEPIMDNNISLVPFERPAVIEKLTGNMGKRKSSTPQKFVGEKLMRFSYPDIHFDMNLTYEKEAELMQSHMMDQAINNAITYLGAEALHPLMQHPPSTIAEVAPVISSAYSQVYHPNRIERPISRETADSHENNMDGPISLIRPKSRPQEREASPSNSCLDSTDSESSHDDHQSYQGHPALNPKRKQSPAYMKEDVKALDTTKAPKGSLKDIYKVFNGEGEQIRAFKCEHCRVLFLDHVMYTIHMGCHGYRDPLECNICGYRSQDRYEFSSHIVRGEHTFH
Chain of IKZF2 (Q96SW2 whole entry, the tested form may be a part): as the sequence (Q96SW2 whole entry) above
Chain of IKZF2 (Q16531 whole entry partner, the tested form may be a part): as the sequence (Q16531 whole entry partner) above

| inhibition at 10 µM [1, 3] | DC50 [1, 4] | DC50 [2] | Structure (SMILES) | inhibition at 10 µM [1, 5] |
| --- | --- | --- | --- | --- |
| 60% | 160 nM | > 30000 nM | O=C1CCC(N2Cc3cc(C4CCN(Cc5cn[nH]c5)CC4)ccc3C2=O)C(=O)N1 (stereo not drawn) [Compound I-116, 3-(5-(1-((1H-pyrazol-4-yl)methyl)piperidin-4-yl)-1-oxoisoindolin-2-yl)piperidine-2,6-dione] | – |
| 50% | 50 nM | > 30000 nM | Cn1ccc(CN2CCC(c3ccc4c(c3)CN(C3CCC(=O)NC3=O)C4=O)CC2)n1 (stereo not drawn) [Compound I-117, 3-(5-(1-((1-methyl-1H-pyrazol-3-yl)methyl)piperidin-4-yl)-1-oxoisoindolin-2-yl)piperidine-2,6-dione] | – |
| 50% | 830 nM | > 30000 nM | O=C1CCC(N2Cc3cc(C4CCN(Cc5cnc[nH]5)CC4)ccc3C2=O)C(=O)N1 (stereo not drawn) [Compound I-120, 3-(5-(1-((1H-imidazol-5-yl)methyl)piperidin-4-yl)-1-oxoisoindolin-2-yl)piperidine-2,6-dione] | – |
| 70% | 76 nM | > 30000 nM | Nc1ncc(CN2CCC(c3ccc4c(c3)CN(C3CCC(=O)NC3=O)C4=O)CC2)cn1 (stereo not drawn) [Compound I-122, 3-(5-(1((2-aminopyrimidin-5-yl)methyl)piperidin-4-yl)-1-oxoisoindolin-2-yl)piperidine-2,6-dione] | – |
| 40% | 9800 nM | > 30000 nM | Cn1ncc(CN2CCC(c3ccc4c(c3)CN(C3CCC(=O)NC3=O)C4=O)CC2)c1N (stereo not drawn) [Compound I-124, 3-(5-(1-((5-amino-1-methyl-1H-pyrazol-4-yl)methyl)piperidin-4-yl)-1-oxoisoindolin-2-yl)piperidine-2,6-dione] | – |
| 60% | 390 nM | > 30000 nM | O=C1CCC(N2Cc3cc(C4CCN(Cc5cnc6cnccn56)CC4)ccc3C2=O)C(=O)N1 (stereo not drawn) [Compound I-126] | – |
| 60% | 170 nM | > 30000 nM | O=C1CCC(N2Cc3cc(C4CCN(Cc5cc(C6CC6)[nH]n5)CC4)ccc3C2=O)C(=O)N1 (stereo not drawn) [Compound I-146, 3-(5-(1-((5-cyclopropyl-1H-pyrazol-3-yl)methyl)piperidin-4-yl)-1-oxoisoindolin-2-yl)piperidine-2,6-dione] | – |

Continued, compound first:

| Structure (SMILES) | inhibition at 10 µM [1, 3] | DC50 [1, 4] | DC50 [2] | inhibition at 10 µM [1, 5] |
| --- | --- | --- | --- | --- |
| O=C1CCC(N2Cc3cc(C4CCN(Cc5cc[nH]c5)CC4)ccc3C2=O)C(=O)N1 (stereo not drawn) [Compound I-119, 3-(5-(1-((1H-pyrrol-3-yl)methyl)piperidin-4-yl)-1-oxoisoindolin-2-yl)piperidine-2,6-dione] | 65% | 140 nM | > 30000 nM | – |
| CCn1ccc(CN2CCC(c3ccc4c(c3)CN(C3CCC(=O)NC3=O)C4=O)CC2)n1 (stereo not drawn) [Compound I-121, 3-(5-(1-((1-ethyl-1H-pyrazol-3-yl)methyl)piperidin-4-yl)-1-oxoisoindolin-2-yl)piperidine-2,6-dione] | 60% | 62 nM | > 30000 nM | – |
| Nc1ccc(CN2CCC(c3ccc4c(c3)CN(C3CCC(=O)NC3=O)C4=O)CC2)cn1 (stereo not drawn) [Compound I-123, 3-(5-(1-((6-aminopyridin-3-yl)methyl)piperidin-4-yl)-1-oxoisoindolin-2-yl)piperidine-2,6-dione] | 75% | 69 nM | > 30000 nM | – |
| O=C1CCC(N2Cc3cc(C4CCN(Cc5cccc6ncnn56)CC4)ccc3C2=O)C(=O)N1 (stereo not drawn) [Compound I-127, 3-(5-(1-([1,2,4]triazolo[1,5-a]pyridin-5-ylmethyl)piperidin-4-yl)-1-oxoisoindolin-2-yl)piperidine-2,6-dione] | 45% | 190 nM | > 30000 nM | – |
| Cc1cn(C)c(CN2CCC(c3ccc4c(c3)CN(C3CCC(=O)NC3=O)C4=O)CC2)n1 (stereo not drawn) [Compound I-129, 3-(5-(1-((1,4-dimethyl-1H-imidazol-2-yl)methyl)piperidin-4-yl)-1-oxoisoindolin-2-yl)piperidine-2,6-dione] | 40% | 190 nM | > 30000 nM | – |
| O=C1CCC(N2Cc3cc(C4CCN(Cc5cnc6ncccn56)CC4)ccc3C2=O)C(=O)N1 (stereo not drawn) [Compound I-132, 3-(5-(1-(imidazo[1,2-a]pyrimidin-3-ylmethyl)piperidin-4-yl)-1-oxoisoindolin-2-yl)piperidine-2,6-dione] | 60% | 1080 nM | > 30000 nM | – |
| O=C1CCC(N2Cc3cc(C4CCN(Cc5ccc6cc[nH]c6n5)CC4)ccc3C2=O)C(=O)N1 (stereo not drawn) [Compound I-140, 3-(5-(1-((1H-pyrrolo[2,3-b]pyridin-6-yl)methyl)piperidin-4-yl)-1-oxoisoindolin-2-yl)piperidine-2,6-dione] | 80% | 19 nM | > 30000 nM | – |
| O=C1CCC(N2Cc3cc(C4CCN(Cc5ccc6c(c5)NCCS6)CC4)ccc3C2=O)C(=O)N1 (stereo not drawn) [Compound I-141, 3-(5-(1-((3,4-dihydro-2H-benzo[b][1,4]thiazin-6-yl)methyl)piperidin-4-yl)-1-oxoisoindolin-2-yl)piperidine-2,6-dione] | 80% | 9 nM | > 30000 nM | – |
| O=C1CCC(N2Cc3cc(C4CCN(Cc5c[nH]nc5-c5ccccc5)CC4)ccc3C2=O)C(=O)N1 (stereo not drawn) [Compound I-148, 3-(1-oxo-5-(1-((3-phenyl-1H-pyrazol-4-yl)methyl)piperidin-4-yl)isoindolin-2-yl)piperidine-2,6-dione] | 70% | 39 nM | > 30000 nM | – |
| O=C1CCC(N2Cc3cc(C4CCN(Cc5c[nH]nc5-c5cccnc5)CC4)ccc3C2=O)C(=O)N1 (stereo not drawn) [Compound I-151, 3-(1-oxo-5-(1-((3-(pyridin-3-yl)-1H-pyrazol-4-yl)methyl)piperidin-4-yl)isoindolin-2-yl)piperidine-2,6-dione] | 60% | 95 nM | > 30000 nM | – |
| O=C1CCC(N2Cc3cc(C4=CCN(Cc5ccccc5)CC4)ccc3C2=O)C(=O)N1 (stereo not drawn) [Compound I-172, 3-(5-(1-benzyl-1,2,3,6-tetrahydropyridin-4-yl)-1-oxoisoindolin-2-yl)piperidine-2,6-dione] | – | 103 nM | 250 nM | 60% |
| Cc1cccc(CN2CCC(c3ccc4c(c3)CN(C3CCC(=O)NC3=O)C4=O)CC2)c1 (stereo not drawn) [Compound I-173, 3-(5-(1-(3-methylbenzyl)piperidin-4-yl)-1-oxoisoindolin-2-yl)piperidine-2,6-dione] | – | 74 nM | > 30000 nM | 65% |
| O=C1CCC(N2Cc3cc(C4CCN(Cc5ccc6c(c5)CCCC6)CC4)ccc3C2=O)C(=O)N1 (stereo not drawn) [Compound I-175, 3-(1-oxo-5-(1-((5,6,7,8-tetrahydronaphthalen-2-yl)methyl)piperidin-4-yl)isoindolin-2-yl)piperidine-2,6-dione] | 50% | 5 nM | > 50000 nM | – |
| O=C1CCC(N2Cc3cc(C4CCN(CCC(F)(F)F)CC4)ccc3C2=O)C(=O)N1 (stereo not drawn) [Compound I-179, 3-(1-oxo-5-(1-(3,3,3-trifluoropropyl)piperidin-4-yl)isoindolin-2-yl)piperidine-2,6-dione] | 40% | 67 nM | > 30000 nM | – |
| CC1(C)CN(Cc2ccccc2)CCC1c1ccc2c(c1)CN(C1CCC(=O)NC1=O)C2=O (stereo not drawn) [Compound I-185, 3-(5-(1-benzyl-3,3-dimethylpiperidin-4-yl)-1-oxoisoindolin-2-yl)piperidine-2,6-dione] | 20% | > 30000 nM | > 30000 nM | – |
